Assay results reported in patent US20260091078A1, “OLIGOPEPTIDE THAT INHIBITS ANGIOGENESIS AND VASCULAR FUNCTION” (UNIVERSIDAD NACIONAL AUTONOMA DE MEXICO, priority 2019, published 2026).
pEC50: −log10 of the molar value.

How the values were obtained:
[1] = tested on: primary cells from the human umbilical vein (HUVEC); test: Transwell Matrigel invasion of HUVEC stimulated with VEGF; assay type: cell-based; settings: 100 nM, VEGF 50 ng mL^-1, 24 hours
Protocol: (§1) Endothelial cells were seeded over 100 μl Matrigel™ matrix (380 ng μl^−1) on a permeable ‘transwell’ support in a transwell chamber having an area of 0.33 cm^2 and 8 μm of pore-diameter at a density of 30,000 and 14,000 cells cm^−2 for BUVEC E6E7 and HUVEC cells, respectively. In the upper (luminal) compartment the cells were maintained with starving media F12K having 0.1 or 0.5% FBS for BUVEC E6E7 and HUVEC, respectively. In addition, HUVEC cells were maintained with 100 μg ml^−1 heparin. […] After 24 hours the media from both compartments and the luminal cells were removed. The abluminal cells were fixed with 100% MeOH for 10 minutes, permeabilized with TBS1x-0.5% Triton X-100, and stained with Hoechst 33342. The total number of cells in the abluminal compartment indicates the invasive activity of endothelial cells.
(§2) The inhibitory effect of 100 nM of the oligopeptide THGRGFI on the invasion of immortalized endothelial cells from the bovine umbilical vein (BUVEC E6E7) (FIG. 3A) or primary cells from the human umbilical vein (HUVEC) (FIG. 3B) stimulated in each case with VEGF (50 ng mL^−1) was compared with the inhibitory effect of 100 nM of the 123 amino acid vasoinhibin (***P<0.001).

[2] = tested on: intracellular adhesion molecule 1 (ICAM1); test: Expression of vasoinhibin target gene ICAM1 mRNA in BUVEC E6E7 (qPCR); assay type: cell-based, bovine; settings: BUVEC E6E7, 100 nM, 4 hours
Protocol: Vasoinhibin induces the expression of a variety of genes via the activation of NF-KB to promote angiostatic and inflammatory effects. In particular, interleukin-1 alpha (IL-1α) and the intercellular adhesion molecule 1 (ICAM1) are vasoinhibin gene targets in the bovine endothelial cells. To evaluate the ability of the oligopeptide […] to induce the expression of IL-1α and ICAM1, BUVEC […] cells were seeded on 12 well plates with F12K-10% FBS, grown to 80% confluency, and starved with low serum (0.1% FBS) culture medium for 24 h. […] After 4 hours the RNA was extracted from the cells using Trizol (Invitrogen, Carlsbad, CA) and retrotranscribed using the High Capacity cDNA Reverse Transcription Kit (Applied Biosystems, Foster City, CA). The RT-PCR products were quantified in a Maxima SYBRgreen qPCR (Thermo Fisher Scientific) 10 μl final volume reaction mixture containing the template and 0.25 μM of each primer. The PCR amplification was done in the CFX96 Real Time PCR (BioRad), comprising a 10-minute denaturalization at 95° C., followed by 35 amplification cycles (95° C. for 10 sec, 58° C. for 30 sec, and 72° C. for 30 sec). […] The PCR data was analyzed by the 2^-ΔΔCT method and the threshold of the cycles (CT) was normalized by the constitutive housekeeping gene cyclophilin A (PPIA). […]

[3] = tested on: immortalized endothelial cells from the bovine umbilical vein (BUVEC E6E7); test: Transwell Matrigel invasion of BUVEC E6E7 stimulated with VEGF; assay type: cell-based; settings: BUVEC E6E7, 100 nM, VEGF 50 ng mL^-1, 24 hours
Protocol: as §1, §2

[4] = tested on: human umbilical-vein endothelial cells (HUVEC); test: Proliferation of HUVEC stimulated with VEGF and bFGF (EdU click assay); assay type: cell-based; settings: HUVEC, 25 ng ml^-1 VEGF and 20 ng ml^-1 bFGF, 24 hours, 0.001 to 100 nM; read-out: effective dose (EC50) for inhibition of proliferation
Protocol: On a 96-well plate treated for cell culture, BUVEC E6E7 and HUVEC cells were seeded at a density of ˜14,000 and ˜11,000 cells cm^−2, respectively. BUVEC E6E7 cells were maintained in F12K culture media with 10% (v/v) fetal bovine serum (FBS) and the HUVEC in F12K media supplemented with 20% of FBS, 100 μg ml^−1 heparin and 25 μg ml^−1 of endothelial cell growth supplement (ECGS). After 24 hours, the cells were starved with FBS-reduced media (0.1% of FBS for BUVEC E6E7 and 0.5% for HUVEC) for 16 hours to synchronize cells in phase GO of the reproductive cycle. After this time, FBS and heparin were replenished only to HUVEC. The cells were then treated with vasoinhibin or the oligopeptide THGRGFI in concentrations ranging from 0.001 to 100 nM for 24 hours in the presence of 10 μM of the thymidine analog 5-Ethynyl-2′-deoxyuridine (EdU) and 50 ng ml^−1 VEGF for the BUVEC E6E7 or the combination of 25 ng ml^−1 VEGF and 20 ng ml^−1 bFGF for HUVEC. At the end of the experiment, cells were fixed with 4% paraformaldehyde, permeabilized with 0.5% Triton X-100 in TBS1x, and stained to detect the newly synthetized DNA by the incorporation of EdU using the “click” assay (which involves a copper catalyzed reaction to covalently bind fluorescent azide to the EDU incorporated to DNA). Total DNA was counterstained with Hoechst 33342 and the “click”-stained nuclei were quantified and plotted relative to the total number of Hoechst 33342-stained nuclei.
HUVEC were seeded on a 96 well plate at a density of ˜11,000 cells cm^−2 and maintained in F12K supplemented with 20% of FBS, 100 μg ml^−1 heparin and 25 μg ml^−1 endothelial cell growth supplement (ECGS). After 24 hours, the cells were synchronized in GO with starving conditions (FBS 0.5%) for 16 hours, and after that FBS and the heparin were replenished. Cells were then treated with THGRGFI, the different oligopeptides and 123 amino acids vasoinhibin, each in a concentration of 100 nM, for 24 hours in presence or absence of 10 μM of thymidine analog 5-Ethynyl-2′-deoxyuridine (EdU) and a combination of 25 ng ml^−1 VEGF and 20 ng ml^−1 bFGF. Finally, the cells were fixed with 4% paraformaldehyde, permeabilized with 0.5% of Triton X-100 in TBS1x and stained for the newly synthetized DNA with the ‘click’ method that detects the EdU incorporation. Total DNA was stained with Hoechst 33342 and the percentage of ‘click’-stained nuclei relative to total nuclei (Hoechst 33342-stained) indicated cell proliferation.
Approximately 11,000 HUVEC cells cm^−2 were seeded on a 96 well plate in F12K media with 20% FBS, 100 μg ml^−1 heparin and 25 μg ml^−1 ECGS. After 24 hours, cells were starved with 0.5% of FBS for ˜16 hours, and after that time the FBS and heparin were added again and cells treated with different doses of the alanine substituted oligopeptides for 24 hours, in the presence of EdU and a combination of 25 ng ml^−1 VEGF and 20 ng ml^−1 bFGF. Finally, the cells were fixed, permeabilized and stained to quantify the synthesis of DNA as a sign of proliferation.

Ac-THGRGFI-NH2 [THGRGFI, Thr His Gly Arg Gly Phe Ile]
inhibition of invasion of endothelial cells [1]: significatively inhibited | fold-change of expression of ICAM1 mRNA versus non-treated control [2]: ~13 fold | inhibition of invasion of endothelial cells [3]: significatively inhibited | pEC50 [4]: ~9.00
